Earlier results on three compounds are cited in patent US6284909A, “Preparations of thiophosphites and thiophosphonates” (University of Southern California, priority 2000, dated 2001).

In general, IC50 refers to the concentration at which inhibition is half-maximal.

Read-outs that look alike come from different tables or passages of the source.

The test system of data set [1] is DNA polymerase of Cytomegalovirus (CMV).
A further data set has as its system H9 cells. The following applies: at effective antiviral doses.
For data set [2], the target named is HIV reverse transcriptase.
Data set [3] relates to Herpesvirus DNA polymerases.
For data set [4] the following is noted: clinical trials.
For data set [5] the following is noted: clinical trials. This is another data set of the same source.
The test system of data set [6] is HIV. Particulars: U.S. Pat. Nos. 5,072,032 and 5,183,812.
For data set [7], the system named is HIV.
The next data set has as its system CMV. Particulars: in culture.

Regarding `O=C(O)P(=O)(O)O` [foscarnet, Trisodium phosphonoformate], the “inhibition of the DNA polymerase of Cytomegalovirus (CMV)” value in [1] was “inhibit”. The “toxicity to cultured H9 cells” value with H9 cells was “non-toxic”. Moreover, the “inhibition of human DNA polymerases, compared with Thiovir” value in the data set on human DNA polymerases is on record as “more inhibitory to human DNA polymerases”. Besides, the IC50 in [2] (trisodium phosphonoformate, known, read-out: IC50 (HIV reverse transcriptase)) is roughly 1000 nM. The “inhibition of several Herpesvirus DNA polymerases” value in [3] was “inhibit several Herpesvirus DNA polymerases”.
As to `O=C(O)P(=O)(O)O` [PFA, phosphonoformic acid], in data set [4], the “characterization of nephrotoxicity: serum creatinine” value was “increased serum creatinine”, the “characterization of nephrotoxicity: tubulopathy” value was “acute toxic tubolopathy” and the nephrotoxicity result is listed as “reversible nephrotoxity”. Besides, in [5], the oral bioavailability entry is listed as “poor”. In the data set with HIV-1, the “inhibition of HIV-1” value was “shown to inhibit HIV-1”.
On to `O=C(O)P(O)(O)=S` [Thiovir®, trisodium thiophosphonoformate], for which the “toxicity to cultured H9 cells” value in the data set with H9 cells is “non-toxic”. The “selectivity of inhibition of isolated HIV RT” value in [2] (in vitro, vs human DNA polymerases) is “selectively inhibited”. Moreover, the half-maximal inhibitory concentration (IC50) in data set [2] (isolated HIV RT, in vitro, Thiovir, read-out: IC50) was roughly 1000 nM. For the same compound, the “effectiveness against HIV, the AIDS virus” value in the data set with HIV [6] was “effective against HIV”. Also, in the data set on HIV [7], the “antiviral activity against HIV compared to DNA polymerase inhibiting activity” value is recorded as “unexpectedly high antiviral activity against HIV”. Besides, the “antiviral activity against CMV-infected cells” value with CMV is reported as “exhibited antiviral activity against CMV-infected cells”.
